In US20070179125A1, “Aminopyrimidines useful as kinase inhibitors” (priority 2005, published 2007):

Legend:
Type in all cases: biochemical
Aurora-2 (Aurora A) = target: T1, Aurora-2 (Aurora A) (Homo sapiens, UniProt O14965); assay: Aurora-2 (Aurora A) inhibition assay, coupled enzyme; conditions: 400 μM ATP, 570 μM Kemptide, 40 nM Aurora-2, 30° C.
T1 sequence (O14965 1-403): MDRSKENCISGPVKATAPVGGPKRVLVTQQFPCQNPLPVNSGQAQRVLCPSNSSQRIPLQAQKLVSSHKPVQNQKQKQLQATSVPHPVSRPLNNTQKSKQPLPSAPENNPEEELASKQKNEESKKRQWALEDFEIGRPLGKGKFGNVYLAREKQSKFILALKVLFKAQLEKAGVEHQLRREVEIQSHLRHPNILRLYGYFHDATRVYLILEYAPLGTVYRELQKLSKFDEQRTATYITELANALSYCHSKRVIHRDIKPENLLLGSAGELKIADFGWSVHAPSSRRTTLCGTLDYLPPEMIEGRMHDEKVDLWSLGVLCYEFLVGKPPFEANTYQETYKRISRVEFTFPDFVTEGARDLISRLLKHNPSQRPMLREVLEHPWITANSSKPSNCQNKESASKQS
Protocol: Compounds were screened for their ability to inhibit Aurora-2 using a standard coupled enzyme assay (Fox et al., Protein Sci., (1998) 7, 2249). Assays were carried out in a mixture of 100 mM Hepes (pH7.5), 10 mM MgCl2, 1 mM DTT, 25 mM NaCl, 2.5 mM phosphoenolpyruvate, 300 μM NADH, 30 μg/ml pyruvate kinase and 10 μg/ml lactate dehydrogenase. Final substrate concentrations in the assay are 400 μM ATP (Sigma Chemicals) and 570 μM peptide (Kemptide, American Peptide, Sunnyvale, Calif.). Assays were carried out at 30° C. and in the presence of 40 nM Aurora-2.
An assay stock buffer solution was prepared containing all of the reagents listed above, with the exception of Aurora-2 and the test compound of interest. 55 μl of the stock solution was placed in a 96 well plate followed by addition of 2 μl of DMSO stock containing serial dilutions of the test compound (typically starting from a final concentration of 7.5 μM). The plate was preincubated for 10 minutes at 30° C. and the reaction initiated by addition of 10 μl of Aurora-2. Initial reaction rates were determined with a Molecular Devices SpectraMax Plus plate reader over a 10 minute time course. IC50 and Ki data were calculated from non-linear regression analysis using the Prism software package (GraphPad Prism version 3.0cx for Macintosh, GraphPad Software, San Diego Calif., USA).

JAK-2 enzyme = JAK-2 enzyme (Homo sapiens, UniProt O60674); assay: JAK2 inhibition assay; conditions: 12 μM ATP, 15 μM poly(Glu)4Tyr
JAK-2 enzyme, sequence (O60674 whole entry, species assumed): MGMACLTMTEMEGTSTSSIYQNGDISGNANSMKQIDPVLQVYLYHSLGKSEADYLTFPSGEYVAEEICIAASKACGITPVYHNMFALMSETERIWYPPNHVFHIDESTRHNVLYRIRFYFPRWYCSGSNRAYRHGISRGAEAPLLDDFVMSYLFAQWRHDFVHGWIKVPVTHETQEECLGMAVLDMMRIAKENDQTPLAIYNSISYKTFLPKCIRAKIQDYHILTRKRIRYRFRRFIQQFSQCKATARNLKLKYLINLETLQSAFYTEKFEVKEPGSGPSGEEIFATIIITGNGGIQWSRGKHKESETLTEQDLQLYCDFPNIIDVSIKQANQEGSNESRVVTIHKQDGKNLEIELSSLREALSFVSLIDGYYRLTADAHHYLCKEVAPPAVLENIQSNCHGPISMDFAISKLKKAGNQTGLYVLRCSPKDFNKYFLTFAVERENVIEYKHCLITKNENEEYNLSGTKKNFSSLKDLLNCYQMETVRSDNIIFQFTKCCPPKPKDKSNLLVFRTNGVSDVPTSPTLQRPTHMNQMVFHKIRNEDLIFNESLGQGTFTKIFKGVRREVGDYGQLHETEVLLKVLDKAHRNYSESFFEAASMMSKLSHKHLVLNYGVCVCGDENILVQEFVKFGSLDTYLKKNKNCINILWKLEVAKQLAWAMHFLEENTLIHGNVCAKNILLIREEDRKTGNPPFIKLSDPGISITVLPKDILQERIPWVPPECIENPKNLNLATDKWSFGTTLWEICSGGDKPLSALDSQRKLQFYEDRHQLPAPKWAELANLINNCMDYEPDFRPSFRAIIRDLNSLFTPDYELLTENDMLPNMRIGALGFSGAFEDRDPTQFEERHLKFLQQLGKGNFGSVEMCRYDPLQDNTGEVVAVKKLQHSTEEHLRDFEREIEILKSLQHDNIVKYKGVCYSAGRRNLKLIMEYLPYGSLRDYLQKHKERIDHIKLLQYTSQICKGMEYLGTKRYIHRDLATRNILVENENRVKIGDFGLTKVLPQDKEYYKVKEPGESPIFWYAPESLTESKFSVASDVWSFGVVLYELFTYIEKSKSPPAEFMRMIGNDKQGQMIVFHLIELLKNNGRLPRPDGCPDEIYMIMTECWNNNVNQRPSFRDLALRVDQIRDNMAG
Protocol: (§1) Compounds were screened for their ability to inhibit JAK using the assay shown below. Reactions were carried out in a kinase buffer containing 100 mM HEPES (pH 7.4), 1 mM DTT, 10 mM MgCl2, 25 mM NaCl, and 0.01% BSA.
(§2) Substrate concentrations in the assay were 5 μM ATP (200 uCi/μmole ATP) and 1 μM poly(Glu)4Tyr. Reactions were carried out at 25° C. and 1 nM JAK3.
(§3) To each well of a 96 well polycarbonate plate was added 1.5 μl of a candidate JAK3 inhibitor along with 50 μl of kinase buffer containing 2 μM poly(Glu)4Tyr and 10 μM ATP. This was then mixed and 50 μl of kinase buffer containing 2 nM JAK3 enzyme was added to start the reaction. After 20 minutes at room temperature (25 C), the reaction was stopped with 50 μl of 20% trichloroacetic acid (TCA) that also contained 0.4 mM ATP. The entire contents of each well were then transferred to a 96 well glass fiber filter plate using a TomTek Cell Harvester. After washing, 60 μl of scintillation fluid was added and ^33P incorporation detected on a Perkin Elmer TopCount.
The assays are as described above in Example 3 except that JAK-2 enzyme is used, the final poly(Glu)4Tyr concentration is 15 μM, and final ATP concentration is 12 μM.

human Itk kinase = target: T2, human Itk kinase (Homo sapiens, UniProt Q08881); assay: Itk inhibition assay, radioactivity-based; conditions: Ki(app); 7.5 μM ATP, 3 μM SAM68 peptide, 50 nM Itk, 25° C.
T2 sequence (Q08881 1-620): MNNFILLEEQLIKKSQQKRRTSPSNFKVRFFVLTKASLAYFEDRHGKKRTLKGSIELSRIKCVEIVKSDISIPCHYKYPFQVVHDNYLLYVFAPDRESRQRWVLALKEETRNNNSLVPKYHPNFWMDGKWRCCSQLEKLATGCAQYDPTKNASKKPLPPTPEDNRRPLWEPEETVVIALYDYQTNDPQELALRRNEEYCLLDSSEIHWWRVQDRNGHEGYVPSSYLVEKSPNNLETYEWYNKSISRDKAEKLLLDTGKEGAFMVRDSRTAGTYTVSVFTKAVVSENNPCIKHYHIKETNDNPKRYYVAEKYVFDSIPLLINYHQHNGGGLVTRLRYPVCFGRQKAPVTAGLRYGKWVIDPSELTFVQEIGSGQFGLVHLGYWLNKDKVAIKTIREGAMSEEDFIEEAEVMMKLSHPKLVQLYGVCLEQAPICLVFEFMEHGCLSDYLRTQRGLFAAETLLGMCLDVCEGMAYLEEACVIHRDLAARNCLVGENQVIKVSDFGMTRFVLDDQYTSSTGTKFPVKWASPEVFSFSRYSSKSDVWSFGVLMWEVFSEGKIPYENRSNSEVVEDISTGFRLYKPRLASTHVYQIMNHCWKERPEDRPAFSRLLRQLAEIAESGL
Protocol: The compounds of the present invention were evaluated as inhibitors of human Itk kinase using a radioactivity-based assay.
Assays were carried out in a mixture of 20 mM MOPS (pH 7.0), 10 mM MgCl2, 0.1% BSA and 1 mM DTT. Final substrate concentrations in the assay were 7.5 μM [γ-^33P]ATP (400 μCi ^33P ATP/μmol ATP, Amersham Pharmacia Biotech/Sigma Chemicals) and 3 μM peptide (SAM68 protein Δ332-443). Assays were carried out at 25° C. in the presence of 50 nM Itk. An assay stock buffer solution was prepared containing all of the reagents listed above, with the exception of ATP and the test compound of interest. 50 μL of the stock solution was placed in a 96 well plate followed by addition of 2 μL of DMSO stock containing serial dilutions of the test compound (typically starting from a final concentration of 50 μM with 2-fold serial dilutions) in duplicate (final DMSO concentration 2%). The plate was pre-incubated for 10 minutes at 25° C. and the reaction initiated by addition of 50 μL [γ-^33P]ATP (final concentration 7.5 μM).
The reaction was stopped after 10 minutes by the addition of 100 μL 0.2M phosphoric acid+0.01% TWEEN 20. […]
Ki(app) data were calculated from non-linear regression analysis of the initial rate data using the Prism software package (GraphPad Prism version 3.0cx for Macintosh, GraphPad Software, San Diego Calif., USA).

Aurora-1 (Aurora B) = Aurora-1 (Aurora B) (Homo sapiens, UniProt Q96GD4); assay: Aurora-1 (Aurora B) inhibition assay (radiometric); conditions: 800 μM ATP, Kemptide, 25° C.
Aurora-1 (Aurora B), sequence (Q96GD4 whole entry, species assumed): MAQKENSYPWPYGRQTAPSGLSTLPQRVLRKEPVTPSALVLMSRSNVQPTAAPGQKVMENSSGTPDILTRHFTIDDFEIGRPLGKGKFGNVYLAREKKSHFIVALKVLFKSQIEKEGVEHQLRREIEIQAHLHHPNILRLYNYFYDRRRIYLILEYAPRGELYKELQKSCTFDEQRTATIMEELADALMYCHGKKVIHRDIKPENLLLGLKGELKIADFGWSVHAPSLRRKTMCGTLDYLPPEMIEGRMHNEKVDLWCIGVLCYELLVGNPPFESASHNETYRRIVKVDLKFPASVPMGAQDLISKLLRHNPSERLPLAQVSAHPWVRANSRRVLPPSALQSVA
Protocol: An assay buffer solution was prepared which consisted of 25 mM HEPES (pH 7.5), 10 mM MgCl2, 0.1% BSA and 10% glycerol. A 22 nM Aurora-B solution, also containing 1.7 mM DTT and 1.5 mM Kemptide (LRRASLG), was prepared in assay buffer. To 22 μL of the Aurora-B solution, in a 96-well plate, was added 2 μl of a compound stock solution in DMSO and the mixture allowed to equilibrate for 10 minutes at 25° C. The enzyme reaction was initiated by the addition of 16 μl stock [γ-^33P]-ATP solution (˜20 nCi/μL) prepared in assay buffer, to a final assay concentration of 800 μM. The reaction was stopped after 3 hours by the addition of 16 μL 500 mM phosphoric acid and the levels of ^33P incorporation into the peptide substrate were determined by the following method.
A phosphocellulose 96-well plate (Millipore, Cat no. MAPHNOB50) was pre-treated with 100 μL of a 100 mM phosphoric acid prior to the addition of the enzyme reaction mixture (40 μL). […] Levels of non-enzyme catalyzed background radioactivity were determined by adding 16 μL of the 500 mM phosphoric acid to control wells, containing all assay components (which acts to denature the enzyme), prior to the addition of the [γ-^33P]-ATP solution. Levels of enzyme catalyzed ^33P incorporation were calculated by subtracting mean background counts from those measured at each inhibitor concentration. […]

JAK3 = target: T3, JAK3 (Homo sapiens, UniProt P52333); assay: JAK3 inhibition assay; conditions: 5 μM ATP, 1 μM poly(Glu)4Tyr, 1 nM JAK3, 25° C.
T3 sequence (P52333 1-1124): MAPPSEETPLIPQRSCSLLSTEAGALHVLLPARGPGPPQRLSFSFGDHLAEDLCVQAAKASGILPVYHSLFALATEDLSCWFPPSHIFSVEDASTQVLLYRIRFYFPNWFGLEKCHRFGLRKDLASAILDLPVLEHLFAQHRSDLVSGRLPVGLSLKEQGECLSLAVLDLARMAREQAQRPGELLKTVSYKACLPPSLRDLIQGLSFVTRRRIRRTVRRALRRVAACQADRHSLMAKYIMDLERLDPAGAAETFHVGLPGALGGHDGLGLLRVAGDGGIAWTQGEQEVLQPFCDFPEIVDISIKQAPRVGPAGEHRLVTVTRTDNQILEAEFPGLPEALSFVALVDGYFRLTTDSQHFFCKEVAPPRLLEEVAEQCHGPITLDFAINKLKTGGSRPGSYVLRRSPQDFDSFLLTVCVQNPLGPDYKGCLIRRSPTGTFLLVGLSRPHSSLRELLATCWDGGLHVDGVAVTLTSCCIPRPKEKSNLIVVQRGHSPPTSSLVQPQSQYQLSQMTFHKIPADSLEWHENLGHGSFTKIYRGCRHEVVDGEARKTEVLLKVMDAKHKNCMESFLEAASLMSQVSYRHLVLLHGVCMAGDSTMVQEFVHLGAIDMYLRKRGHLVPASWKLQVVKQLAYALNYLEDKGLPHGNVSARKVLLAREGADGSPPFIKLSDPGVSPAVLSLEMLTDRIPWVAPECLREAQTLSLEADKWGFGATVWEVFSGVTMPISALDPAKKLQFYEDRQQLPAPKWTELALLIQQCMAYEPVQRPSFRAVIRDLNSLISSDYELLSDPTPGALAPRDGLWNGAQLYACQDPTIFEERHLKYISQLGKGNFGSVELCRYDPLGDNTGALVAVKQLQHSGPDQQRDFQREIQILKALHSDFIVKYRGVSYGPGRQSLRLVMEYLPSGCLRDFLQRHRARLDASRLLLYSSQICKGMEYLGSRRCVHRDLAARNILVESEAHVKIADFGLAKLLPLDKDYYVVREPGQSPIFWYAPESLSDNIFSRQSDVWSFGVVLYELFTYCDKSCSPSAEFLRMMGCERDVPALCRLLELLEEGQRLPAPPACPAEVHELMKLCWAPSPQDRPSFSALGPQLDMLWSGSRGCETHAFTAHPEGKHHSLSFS
Protocol: as §1, §2, §3

Ki (Aurora-2 (Aurora A)) | Ki (JAK-2 enzyme) | Ki (human Itk kinase) | Compound | Ki (Aurora-1 (Aurora B)) | Ki (JAK3)
< 50 nM | < 250 nM | < 1000 nM | Cc1cc(Nc2cc(N3CCC3)nc(O[C@H]3CCN(C(=O)OC(C)(C)C)C3)n2)[nH]n1 [Compound I-1, (S)-3-[4-Azetidin-1-yl-6-(5-methyl-2H-pyrazol-3-ylamino)-pyrimidin-2-yloxy]-pyrrolidine-1-carboxylic acid tert-butyl ester] | – | –
– | – | – | Cc1cc(Nc2cc(N3CC(F)(C4CC4)C3)nc(O[C@H]3CCN(C(=O)c4cc(Cl)ccc4F)C3)n2)[nH]n1 [Compound I-3, (S)-(5-chloro-2-fluorophenyl)(3-(4-(3-cyclopropyl-3-fluoroazetidin-1-yl)-6-(3-methyl-1H-pyrazol-5-ylamino)pyrimidin-2-yloxy)pyrrolidin-1-yl)methanone] | < 25 nM | < 250 nM
